# What was measured:
# MST1 = MST1 (Homo sapiens, UniProt Q13043); experiment: biochemical; settings: read-out: % inhib
# [1] = Plasma protein binding (PPB %); type: in vitro ADME; settings: dog
# Procedure: (§1) The hepatocyte stability of compound IIIat was evaluated across preclinical species. Certain in vivo pharmacokinetic parameters were also evaluated. […] Male Sprague-Dawley rats, female CD-1 mice, male cynomolgus monkeys and beagle dogs were dosed intravenously with 1 mg/kg of compound IIIat prepared in 60% PEG400/10% Ethanol. Compound IIIat was administered orally (PO) at the indicated dose in 0.5% methylcellulose with 0.2% Tween 80 (MCT).
# Abl = Abl (Homo sapiens, UniProt P00519); experiment: biochemical; settings: read-out: % inhib
# TAO1 = experiment: Kinase panel; type: biochemical; settings: TAO1, 1 μM
# [2] = Hepatocyte stability, predicted hepatic clearance; type: in vitro ADME; settings: in vitro t1/2 method
# Procedure: as §1
# CamKIV = CamKIV (Homo sapiens, UniProt Q16566); experiment: biochemical; settings: read-out: % inhib
# PhK_gamma2 = PhK_gamma2 (Homo sapiens, UniProt P15735); experiment: biochemical; settings: read-out: % inhib
# GRK5 = GRK5 (Homo sapiens, UniProt P34947); experiment: biochemical; settings: read-out: % inhib
# Sequence of GRK5 (P34947 whole entry): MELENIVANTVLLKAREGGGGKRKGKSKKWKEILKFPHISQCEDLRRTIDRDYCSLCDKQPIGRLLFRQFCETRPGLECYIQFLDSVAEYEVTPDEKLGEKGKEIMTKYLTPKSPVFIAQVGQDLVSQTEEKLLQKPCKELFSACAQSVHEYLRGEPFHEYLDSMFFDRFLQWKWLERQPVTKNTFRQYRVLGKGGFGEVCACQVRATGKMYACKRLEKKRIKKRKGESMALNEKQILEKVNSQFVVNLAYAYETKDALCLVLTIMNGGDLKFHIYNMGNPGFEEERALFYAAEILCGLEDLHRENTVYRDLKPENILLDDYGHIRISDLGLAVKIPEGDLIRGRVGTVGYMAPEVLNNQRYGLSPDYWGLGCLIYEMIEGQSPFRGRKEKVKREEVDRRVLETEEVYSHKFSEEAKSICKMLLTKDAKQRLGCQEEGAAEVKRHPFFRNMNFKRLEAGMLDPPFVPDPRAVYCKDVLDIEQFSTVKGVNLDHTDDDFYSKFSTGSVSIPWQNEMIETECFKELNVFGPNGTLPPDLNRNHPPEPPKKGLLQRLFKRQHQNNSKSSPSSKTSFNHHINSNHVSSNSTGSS
# EphA2 = EphA2 (Homo sapiens, UniProt P29317); experiment: biochemical; settings: read-out: % inhib
# Frk = Frk (Homo sapiens, UniProt P42685); experiment: biochemical; settings: read-out: % inhib
# Sequence of Frk (P42685 whole entry): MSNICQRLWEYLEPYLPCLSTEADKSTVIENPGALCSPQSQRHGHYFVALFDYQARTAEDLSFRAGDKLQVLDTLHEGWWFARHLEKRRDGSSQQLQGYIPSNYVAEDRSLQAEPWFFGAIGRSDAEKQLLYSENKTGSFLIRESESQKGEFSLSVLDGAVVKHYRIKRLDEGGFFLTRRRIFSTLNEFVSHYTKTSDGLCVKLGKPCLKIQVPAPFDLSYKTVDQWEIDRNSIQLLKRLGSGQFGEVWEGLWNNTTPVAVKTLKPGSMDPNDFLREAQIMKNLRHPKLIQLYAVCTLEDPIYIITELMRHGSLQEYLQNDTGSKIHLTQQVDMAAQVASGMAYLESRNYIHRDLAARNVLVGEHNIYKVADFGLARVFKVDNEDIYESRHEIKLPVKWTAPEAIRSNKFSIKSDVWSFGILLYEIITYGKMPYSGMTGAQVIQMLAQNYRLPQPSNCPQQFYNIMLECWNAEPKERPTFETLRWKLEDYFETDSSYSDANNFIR
# MST2 = MST2 (Homo sapiens, UniProt Q13188); experiment: biochemical; settings: read-out: % inhib
# Sequence of MST2 (Q13188 whole entry, species assumed): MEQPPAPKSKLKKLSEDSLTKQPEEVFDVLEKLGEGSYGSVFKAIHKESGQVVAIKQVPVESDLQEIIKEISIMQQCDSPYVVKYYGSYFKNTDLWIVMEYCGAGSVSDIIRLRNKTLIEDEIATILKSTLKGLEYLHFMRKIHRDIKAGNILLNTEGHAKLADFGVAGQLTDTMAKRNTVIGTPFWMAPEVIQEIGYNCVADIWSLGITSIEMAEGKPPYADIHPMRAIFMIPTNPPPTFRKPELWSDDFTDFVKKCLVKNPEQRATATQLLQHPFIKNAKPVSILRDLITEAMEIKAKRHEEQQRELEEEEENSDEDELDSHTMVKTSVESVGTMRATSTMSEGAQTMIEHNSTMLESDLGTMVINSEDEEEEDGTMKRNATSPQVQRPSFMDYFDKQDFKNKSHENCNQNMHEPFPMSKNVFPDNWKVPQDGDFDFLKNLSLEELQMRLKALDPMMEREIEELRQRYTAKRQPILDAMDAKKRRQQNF
# U87 intracranial tumors = experiment: Efficacy in U87 intracranial model; type: in vivo, mice; settings: 15 mg/kg PO daily for 2 weeks, micro-CT
# Text: These U87 and GS2 models are PTEN-deficient, with the GS2 cell line presenting a copy number loss at the PTEN locus (Gunther H S, et al.) with no detectable PTEN protein by western blot (Carlson […], Schroeder […]., “Establishment, maintenance and in vitro and in vivo applications of primary human glioblastoma multiforme (GBM) xenograft models for translational biology studies and drug discovery”, Curr Protoc Pharmacol. 2011; Chapter 14: Unit 14 16). The identity of the two cell lines was confirmed by STR profiling (DNA Diagnostics Center) using cells within 5 passages of those utilized for in vivo studies. […] The differences between treatment groups were evaluated using Student's t test in Prism (Prism 5, GraphPad). […] Body temperature was continuously monitored using a rectal probe and was maintained at 37° C. by a heated-air flow system regulated by in-house LabVIEW controller software. […] 12-20 axial 0.5-0.8 mm-thick slices were acquired with a 20×20 mm field of view (FOV), and 128×128 matrix, zero-filled to 256×256 mages. […] Brain sample preparation, micro-CT scanning, and image analysis for ex-vivo micro-CT imaging were performed as described previously (de […], Nishimura M C, Phillips H, Carano […] micro-CT imaging of the postmortem brain”, J. Neurosci. Methods. 2008; 171 (2): 207-213).
# PhK_gamma1 = PhK_gamma1 (Homo sapiens, UniProt Q16816); experiment: biochemical; settings: read-out: % inhib
# Sequence of PhK_gamma1 (Q16816 whole entry): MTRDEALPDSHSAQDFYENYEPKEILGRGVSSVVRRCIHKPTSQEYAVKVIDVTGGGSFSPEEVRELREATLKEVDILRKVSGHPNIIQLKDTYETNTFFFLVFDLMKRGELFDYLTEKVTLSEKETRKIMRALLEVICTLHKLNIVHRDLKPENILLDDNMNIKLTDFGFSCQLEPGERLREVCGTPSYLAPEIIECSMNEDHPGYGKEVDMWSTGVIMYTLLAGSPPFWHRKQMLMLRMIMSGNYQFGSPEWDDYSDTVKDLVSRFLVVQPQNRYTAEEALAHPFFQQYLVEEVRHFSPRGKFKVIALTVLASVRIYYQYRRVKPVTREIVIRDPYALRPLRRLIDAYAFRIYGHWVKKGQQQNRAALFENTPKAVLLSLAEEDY
# CSK = CSK (Homo sapiens, UniProt P41240); experiment: biochemical; settings: read-out: % inhib
# EphB3 = EphB3 (Homo sapiens, UniProt P54753); experiment: biochemical; settings: read-out: % inhib
# Sequence of EphB3 (P54753 34-998): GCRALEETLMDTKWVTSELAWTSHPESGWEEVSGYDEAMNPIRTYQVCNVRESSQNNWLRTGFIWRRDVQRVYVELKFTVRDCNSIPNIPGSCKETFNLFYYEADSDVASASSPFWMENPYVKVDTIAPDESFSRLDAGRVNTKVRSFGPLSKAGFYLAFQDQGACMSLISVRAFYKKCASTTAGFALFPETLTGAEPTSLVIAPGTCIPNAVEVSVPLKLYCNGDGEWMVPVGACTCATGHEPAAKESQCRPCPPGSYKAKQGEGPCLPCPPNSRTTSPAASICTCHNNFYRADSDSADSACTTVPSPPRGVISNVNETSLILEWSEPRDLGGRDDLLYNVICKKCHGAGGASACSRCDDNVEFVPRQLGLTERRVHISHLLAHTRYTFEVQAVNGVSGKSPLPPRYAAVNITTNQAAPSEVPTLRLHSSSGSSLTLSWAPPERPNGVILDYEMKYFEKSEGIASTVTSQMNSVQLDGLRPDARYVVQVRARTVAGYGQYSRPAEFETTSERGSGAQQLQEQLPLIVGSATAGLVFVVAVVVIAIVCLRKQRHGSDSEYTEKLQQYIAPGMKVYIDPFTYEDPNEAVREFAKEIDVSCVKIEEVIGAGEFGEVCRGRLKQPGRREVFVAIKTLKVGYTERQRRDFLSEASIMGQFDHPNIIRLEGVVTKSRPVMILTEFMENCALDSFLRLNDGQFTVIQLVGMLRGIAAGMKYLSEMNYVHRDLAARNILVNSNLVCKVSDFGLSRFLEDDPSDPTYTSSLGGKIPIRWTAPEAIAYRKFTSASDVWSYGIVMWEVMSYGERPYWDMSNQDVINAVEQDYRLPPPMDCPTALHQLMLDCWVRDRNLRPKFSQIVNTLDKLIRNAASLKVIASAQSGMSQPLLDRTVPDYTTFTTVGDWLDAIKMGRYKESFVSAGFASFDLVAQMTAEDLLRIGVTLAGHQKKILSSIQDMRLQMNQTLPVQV
# pAKT = experiment: PI3K pathway modulation in GS2 tumors, western blot; settings: 15 mg/kg PO daily 4 weeks
# Procedure: Each brain was dissected to separate the tumor from the healthy tissues. […] The GS2 tumors isolated from the brains were processed and the PI3K pathway markers pAkt, pS6 and p4EBP1 were measured as described previously.
# PAK1 = PAK1 (Homo sapiens, UniProt Q13153); experiment: biochemical; settings: read-out: % inhib
# [3] = In vivo pharmacokinetics IV and PO; parameters: species or system beagle dogs; settings: Dog
# Procedure: as §1
# human P-gp (MDR1) = target: T1, human P-gp (MDR1) (Homo sapiens, UniProt P08183); experiment: Transport assay in MDR1-MDCKI cell monolayers; type: in vitro ADME; settings: MDCK-MDR1, 2-hour incubation
# T1 construct: host or cells: MDR1-MDCKI (canine kidney)
# T1 sequence (P08183 whole entry): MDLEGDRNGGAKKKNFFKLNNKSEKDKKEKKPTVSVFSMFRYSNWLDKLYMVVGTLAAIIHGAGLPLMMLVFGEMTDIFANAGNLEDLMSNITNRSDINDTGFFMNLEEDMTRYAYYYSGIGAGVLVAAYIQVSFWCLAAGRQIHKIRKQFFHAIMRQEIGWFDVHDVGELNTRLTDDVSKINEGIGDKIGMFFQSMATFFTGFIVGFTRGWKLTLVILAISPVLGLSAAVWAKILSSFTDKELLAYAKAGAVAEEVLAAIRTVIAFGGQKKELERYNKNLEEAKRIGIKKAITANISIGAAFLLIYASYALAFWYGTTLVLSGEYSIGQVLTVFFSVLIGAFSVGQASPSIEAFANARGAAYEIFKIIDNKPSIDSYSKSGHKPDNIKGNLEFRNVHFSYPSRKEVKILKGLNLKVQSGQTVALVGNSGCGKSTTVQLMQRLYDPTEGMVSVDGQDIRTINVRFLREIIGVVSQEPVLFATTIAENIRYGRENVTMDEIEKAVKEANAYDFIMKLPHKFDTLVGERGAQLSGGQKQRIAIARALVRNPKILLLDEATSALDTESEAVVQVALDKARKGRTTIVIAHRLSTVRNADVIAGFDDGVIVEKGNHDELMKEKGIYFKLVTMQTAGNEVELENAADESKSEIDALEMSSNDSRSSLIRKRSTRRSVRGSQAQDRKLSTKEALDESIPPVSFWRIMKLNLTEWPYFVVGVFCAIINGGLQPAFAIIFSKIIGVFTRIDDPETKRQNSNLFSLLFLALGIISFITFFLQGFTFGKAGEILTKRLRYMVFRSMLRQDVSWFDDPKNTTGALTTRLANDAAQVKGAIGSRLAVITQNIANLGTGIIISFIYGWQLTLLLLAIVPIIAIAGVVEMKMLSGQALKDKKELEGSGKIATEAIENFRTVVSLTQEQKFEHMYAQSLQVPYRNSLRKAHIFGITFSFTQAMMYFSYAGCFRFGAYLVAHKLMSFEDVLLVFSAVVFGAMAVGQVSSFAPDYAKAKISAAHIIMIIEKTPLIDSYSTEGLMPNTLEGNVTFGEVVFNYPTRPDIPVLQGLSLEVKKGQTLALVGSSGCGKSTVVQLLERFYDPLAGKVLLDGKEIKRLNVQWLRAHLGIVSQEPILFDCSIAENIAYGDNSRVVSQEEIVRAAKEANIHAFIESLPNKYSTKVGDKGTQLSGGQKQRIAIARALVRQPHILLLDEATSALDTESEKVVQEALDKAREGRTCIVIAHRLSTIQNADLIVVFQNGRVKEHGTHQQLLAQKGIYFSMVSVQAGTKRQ
# Procedure: MDR1-MDCKI cells were licensed from the NCI (National Cancer Institute, Bethesda, Md.) and Bcrp1-MDCKII, BCRP-MDCKII and Mdr1a-LLC-PK1 cells were obtained from the Netherlands Cancer Institute (Amsterdam. The Netherlands). […] The compound was dissolved in transport buffer consisting of Hank's balanced salt solution (HBSS) with 10 mM HEPES (Invitrogen Corporation, Grand Island, N.Y.). Lucifer Yellow (Sigma-Aldrich, St. Louis, Mo.) was used as the paracellular and monolayer integrity marker. […] The efflux ratio (ER) was calculated (Papp, B-A/Papp, A-B).
# [4] = Plasma protein binding (PPB %); type: in vitro ADME, cynomolgus monkeys; settings: cynomolgus monkey
# Procedure: as §1
# [5] = Plasma protein binding by equilibrium dialysis; type: in vitro ADME; settings: mouse, plasma (pooled), pH 7.4, n=3, mean±standard deviation, read-out: free fraction (%) in mouse plasma
# Procedure: Plasma samples were equilibrated with phosphate-buffered saline (pH 7.4) at 37° C. in 90% humidity and 5% CO2 for 4 hours. […] Incubations were performed in triplicate. Parameters are presented as mean±standard deviation.
# Sequence of MST1 (Q13043 whole entry): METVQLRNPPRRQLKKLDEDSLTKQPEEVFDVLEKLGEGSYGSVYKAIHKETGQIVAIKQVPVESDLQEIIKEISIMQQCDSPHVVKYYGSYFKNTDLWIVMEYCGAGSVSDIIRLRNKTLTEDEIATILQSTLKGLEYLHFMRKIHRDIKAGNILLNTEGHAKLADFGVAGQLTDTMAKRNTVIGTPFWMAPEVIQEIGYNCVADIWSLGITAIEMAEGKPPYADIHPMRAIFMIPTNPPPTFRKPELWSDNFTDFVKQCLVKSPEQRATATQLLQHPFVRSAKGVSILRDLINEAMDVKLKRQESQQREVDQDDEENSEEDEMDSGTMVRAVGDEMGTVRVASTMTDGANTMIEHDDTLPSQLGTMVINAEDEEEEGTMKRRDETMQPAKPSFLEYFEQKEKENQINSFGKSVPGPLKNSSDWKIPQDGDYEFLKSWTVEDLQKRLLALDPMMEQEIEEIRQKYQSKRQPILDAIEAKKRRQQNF
smiles,measurement,setting,value
"CC1(C)OCCn2c1nc1c(N3CCOCC3)nc(-c3cnc(N)nc3)nc12 [GDC-0084, 5-(6,6-dimethyl-4-morpholino-8,9-dihydro-6H-[1,4]oxazino[3,4-e]purin-2-yl)pyrimidin-2-amine]",inhibition at 1 µM,MST1,5%
same,fraction unbound,[1],0.34
same,inhibition at 1 µM,Abl,2%
same,% inhib,TAO1,−1.3%
same,Clhep,[2]; Dog hepatocytes,13 mL/min/kg
same,Clhep,[2]; Mouse hepatocytes,30 mL/min/kg
same,Clhep,[2]; Rat hepatocytes,3 mL/min/kg
same,inhibition at 1 µM,CamKIV,0.2%
same,inhibition at 1 µM,PhK_gamma2,0%
same,inhibition at 1 µM,GRK5,-10%
same,inhibition at 1 µM,EphA2,-0.7%
same,inhibition at 1 µM,Frk,8%
same,inhibition at 1 µM,MST2,-2%
same,U87 tumor volume reduction versus vehicle control,U87 intracranial tumors,approximately 70%
same,inhibition at 1 µM,PhK_gamma1,2%
same,inhibition at 1 µM,CSK,10%
same,inhibition at 1 µM,EphB3,-0.1%
same,reduction of pAkt levels in GS2 tumors,pAKT; 2 hours after final administration,90%
same,reduction of pAkt levels in GS2 tumors,pAKT; 8 hours after final administration,70%
same,inhibition at 1 µM,PAK1,7%
same,AUC,[3]; PO 2 mg/kg in MCT,1.6 μm·h
same,Cmax,[3]; PO 2 mg/kg in MCT,0.2 μm
same,clearance,"[3]; beagle, plasma, IV 1 mg/kg, read-out: In vivo Cl",26 mL/min/kg
same,Vd,"[3]; beagle, plasma, IV 1 mg/kg, read-out: Vss",3 L/kg
same,bioavailability,"[3]; beagle, plasma, PO 2 mg/kg in MCT",40%
same,"Papp A→B at 2 h, 5 μM",human P-gp (MDR1),13.5 ± 0.9 ×10⁻⁶ cm/s
same,fraction unbound,[4],0.25
same,"fraction unbound at 4 h, 5 µM",[5],0.295 ± 0.027

# — patent US11643421B2, “Process for the preparation of tricyclic PI3K inhibitor compounds and methods for using the same for the treatment of cancer” (priority 2015, dated 2023)
